Results taken from the supplement of paper PMC12137928.
Where a name gives a salt, the structure may show the parent alone.

Assays:
[1] = system: HCT116; settings: 72 h
Procedure, shortened: (§1)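 In 1536-well plates, 250 HCT116 cells per well were seeded and left for 5 h to attach. Luminescence from CellTiter-Glo was set against vehicle (0%) and positive control (-100%), and pattern correction was applied. IC50 and maximal efficacy come from four-parameter Hill fitting.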

[2] = system: HCT116; assay: efficacy (maximum % inhibition of viability vs DMSO); higher = more cytotoxic; settings: 72 h
Procedure, shortened: as §1

SMILES	IC50 cell viability ([1]; ICRF193 0 nM)	IC50 cell viability ([1]; ICRF193 200 nM)	efficacy ([2]; ICRF193 200 nM)	efficacy ([2]; ICRF193 0 nM)
Cc1cc2nc3c(=O)[nH]c(=O)nc-3n(C[C@H](O)[C@H](O)[C@H](O)CO)c2cc1C [Riboflavin]	> 45.8 µM	14.2 µM	57.7%	
C=CCNc1c(O)cc2c(O)c1C[C@@H](C)C[C@H](OC)[C@H](O)[C@@H](C)/C=C(\C)[C@H](OC(N)=O)[C@@H](OC)/C=C\C=C(/C)C(=O)N2 [Retaspimycin (Hydrochloride)]	1.16 µM	0.291 µM	79.8%	80.4%
C[C@@H]1C[C@H]2[C@@H]3CCC4=CC(=O)C=C[C@]4(C)[C@@]3(Cl)[C@@H](O)C[C@]2(C)[C@@]1(OC(=O)c1ccco1)C(=O)CCl [Mometasone furoate]	18.3 µM	20.6 µM	97.9%	102%
COc1cc(NCc2ccc3nc(N)nc(N)c3c2C)cc(OC)c1OC [Trimetrexate]	1.16 µM	0.92 µM	90.7%	102%
COC(=O)[C@H]1[C@H]2C[C@@H]3c4[nH]c5cc(OC)ccc5c4CCN3C[C@H]2C[C@@H](OC(=O)/C=C/c2ccc(O)c(OC)c2)[C@@H]1OC [Rescimetol]	20.6 µM	29.1 µM	106%	101%
C[C@@H](O[C@H]1OCCN(Cc2n[nH]c(=O)[nH]2)[C@H]1c1ccc(F)cc1)c1cc(C(F)(F)F)cc(C(F)(F)F)c1 [Aprepitant]	23.1 µM	18.3 µM	102%	113%
C=C1C(=O)O[C@H]2[C@H]1CC/C(C)=C/CC[C@@]1(C)O[C@@H]21 [Parthenolide]	6.51 µM	8.2 µM	95.3%	93.1%
CCCC[C@H](C)C[C@H](O)/C=C/[C@H]1[C@H](O)CC(=O)[C@@H]1CCCC/C=C/C(=O)O [Limaprost]	20.6 µM	16.4 µM	77.6%	81.4%
O=S(=O)(O)c1ccc2c(/N=N/c3ccc(S(=O)(=O)O)c4ccccc34)c(O)c(S(=O)(=O)O)cc2c1 [Amaranth]	16.4 µM	13 µM	47.6%	49%
CC(=O)[C@H]1CC[C@H]2[C@@H]3C=CC4=CC(=O)CC[C@@]4(C)[C@@H]3CC[C@]12C [Dydrogesterone]	> 45.8 µM	20.6 µM	41.7%	
COc1ccc(C(Cl)=C(c2ccc(OC)cc2)c2ccc(OC)cc2)cc1 [Chlorotrianisene]	> 45.8 µM	23.1 µM	45.8%	
CCCCCCOc1ccc(C(=N)N(CCCC)CCCC)c2ccccc12 [Bunamidine hydrochloride]	11.6 µM	10.3 µM	106%	104%
CC(C)C(=O)OCc1cccc(OC(=O)[C@@H]2N3C(=O)[C@@H](NC(=O)Cc4ccccc4)[C@H]3SC2(C)C)c1 [Tobicillin]	29.1 µM	29.1 µM	103%	122%
COc1ccccc1N1CCN(CC(O)COc2cccc3ccccc23)CC1 (configuration not stated) [Naftopidil]	> 45.8 µM	23.1 µM	62.6%	
C/C(=C(/OCCOc1ccc(Cl)cc1)c1ccc(Cl)cc1Cl)n1ccnc1 [Omoconazole]	18.3 µM	23.1 µM	62.4%	41.1%
O=[N+]([O-])c1c(Cl)cccc1-c1c[nH]cc1Cl [Pyrrolnitrin]	14.6 µM	18.3 µM	55.5%	54.1%
C/C(=C\c1csc(C)n1)[C@@H]1C[C@@H]2O[C@]2(C)CCC[C@H](C)[C@H](O)[C@@H](C)C(=O)C(C)(C)[C@@H](O)CC(=O)N1 [Ixabepilone]	0.92 µM	> 45.8 µM		72.5%
O=C(CCCN1CCN(c2ccccn2)CC1)c1ccc(F)cc1 [Azaperone]	> 45.8 µM	0.206 µM	87.6%	
C#C[C@]1(O)CC[C@H]2[C@@H]3CCc4cc(OC5CCCC5)ccc4[C@H]3CC[C@@]21C [Quinestrol]	20.6 µM	23.1 µM	56.3%	55%
CNCCCC12CCC(c3ccccc31)c1ccccc12 [Maprotiline hydrochloride]	> 45.8 µM	29.1 µM	86.5%	
COc1cc([C@@H]2c3cc4c(cc3[C@@H](O[C@@H]3O[C@@H]5CO[C@@H](C)O[C@H]5[C@H](O)[C@H]3O)[C@H]3COC(=O)[C@H]23)OCO4)cc(OC)c1O [Etoposide]	29.1 µM	2.91 µM	99.1%	66.7%
O=C(Nc1ccc(Cl)cc1)Nc1ccc(Cl)c(C(F)(F)F)c1 [Cloflucarban]	5.8 µM	5.8 µM	98.1%	98.6%
CCCN(CCC)C(=O)C(CCC(=O)OCCCN1CCN(CCOC(=O)Cc2c(C)n(C(=O)c3ccc(Cl)cc3)c3ccc(OC)cc23)CC1)NC(=O)c1ccccc1 (configuration not stated) [Proglumetacin]	> 45.8 µM	20.6 µM	48.5%	
COC(=O)C1=C(C)NC(C)=C(C(=O)OC)C1c1ccccc1[N+](=O)[O-] [Nifedipine]	23.1 µM	23.1 µM	90.5%	94.7%
COc1c(C)c2c(c(O)c1C/C=C(\C)CCC(=O)OCCN1CCOCC1)C(=O)OC2 [Mycophenolate mofetil]	1.83 µM	1.64 µM	74.4%	74%
CN1CCC[C@@H]1CCO[C@](C)(c1ccccc1)c1ccc(Cl)cc1 [Clemastine fumarate]	18.3 µM	23.1 µM	114%	88%
O=C(/C=C/c1cccc(S(=O)(=O)Nc2ccccc2)c1)NO [Belinostat]	1.3 µM	1.16 µM	62.1%	100%
CC(C)C[C@H](NC(=O)CNC(=O)c1cc(Cl)ccc1Cl)B(O)O [Ixazomib]	0.0651 µM	0.058 µM	92.6%	92.8%

SMILES	IC50 cell viability ([1]; ICRF193 0 nM)	IC50 cell viability ([1]; ICRF193 200 nM)	efficacy ([2]; ICRF193 200 nM)	efficacy ([2]; ICRF193 0 nM)
COCc1c(C(C)C)nc(C(C)C)c(/C=C/[C@@H](O)C[C@@H](O)CC(=O)O)c1-c1ccc(F)cc1 [Cerivastatin sodium]	1.03 µM	0.92 µM	102%	106%
CN(C(=O)CN(CCO)CC(=O)N(C)C(C)(C)Cc1ccccc1)C(C)(C)Cc1ccccc1 [Oxethazaine]	16.4 µM	13 µM	97.5%	104%
O=C1CSC2(CCN(CCCN3c4ccccc4Sc4ccc(Cl)cc43)CC2)N1 [Spiclomazine hydrochloride]	20.6 µM	23.1 µM	82.5%	81.3%
CCO/N=C(\C(=O)N[C@@H]1C(=O)N2C(C(=O)[O-])=C(Sc3nc(-c4cc[n+](C)cc4)cs3)CS[C@H]12)c1nsc(NP(=O)(O)O)n1 [TAK-599]	25.9 µM	29.1 µM	76.4%	57.6%
N=C(N)c1ccc(OCCCCCOc2ccc(C(=N)N)cc2)cc1 [Pentamidine isethionate]	> 45.8 µM	18.3 µM	60.4%	
CS(=O)(=O)CCNCc1ccc(-c2ccc3ncnc(Nc4ccc(OCc5cccc(F)c5)c(Cl)c4)c3c2)o1 [Lapatinib]	16.4 µM	20.6 µM	110%	106%
NCCNc1ccc(NCCN)c2c1C(=O)c1ccncc1C2=O [Pixantronemaleate]	29.1 µM	13 µM	82.2%	83.2%
C[C@]12CC[C@H](O)C[C@H]1CC[C@@H]1[C@@H]2CC[C@]2(C)[C@@H](c3ccc(=O)oc3)C[C@H]3O[C@]132 [Bufogenin]	4.61 µM	4.61 µM	84.6%	71.3%
CNCCCCOc1ccccc1Cc1ccccc1 [Bifemelane]	20.6 µM	14.6 µM	49.6%	40.6%
CCOC(=O)C1=C(C)NC(C)=C(C(=O)OC)C1c1cccc(Cl)c1Cl (configuration not stated) [Felodipine]	18.3 µM	18.3 µM	52%	47.4%
Cc1ccc([N+](=O)[O-])[c]2c1[O][Hg]2 [Nitromersol]	3.26 µM	5.8 µM	91.5%	88.9%
CC(C)(C)c1cc(C(C)(C)C)c(NC(=O)c2c[nH]c3ccccc3c2=O)cc1O [Ivacaftor]	18.3 µM	18.3 µM	98.6%	96.4%
CC[C@H](C)[C@@H]([C@@H](CC(=O)N1CCC[C@H]1[C@H](OC)[C@@H](C)C(=O)NCCc1ccccc1)OC)N(C)C(=O)[C@@H](NC(=O)[C@H](C(C)C)N(C)C)C(C)C [Auristatin PE]	> 45.8 µM	0.00461 µM	42.4%	
c1ccc2c(c1)Sc1ccccc1N2CC1CN2CCC1CC2 (configuration not stated) [Mequitazine]	16.4 µM	20.6 µM	96.8%	103%
COc1ccc(CCN2CCC(Nc3nc4ccccc4n3Cc3ccc(F)cc3)CC2)cc1 [Astemizole]	20.6 µM	16.4 µM	102%	108%
CCCCN(CCCC)CCC(O)c1cc2c(Cl)cc(Cl)cc2c2cc(C(F)(F)F)ccc12 (configuration not stated) [Halofantrine]	23.1 µM	20.6 µM	87.4%	66.9%
CC(CCc1ccc(O)cc1)NCCc1ccc(O)c(O)c1 (configuration not stated) [Dobutamine]	> 45.8 µM	23.1 µM	83.3%	
C=CC[C@@H]1/C=C(\C)C[C@H](C)C[C@H](OC)[C@H]2O[C@@](O)(C(=O)C(=O)N3CCCC[C@H]3C(=O)O[C@H](/C(C)=C/[C@@H]3CC[C@@H](O)[C@H](OC)C3)[C@H](C)[C@@H](O)CC1=O)[C@H](C)C[C@@H]2OC [FK-506]	6.51 µM	4.61 µM	45.5%	78.2%
COC(=O)C1=C(C)NC(C)=C(C(=O)OCC(C)=O)C1c1ccccc1[N+](=O)[O-] (configuration not stated) [Aranidipine]	29.1 µM	16.4 µM	88.9%	83.8%
Cc1cc(C#N)cc(C)c1Oc1nc(Nc2ccc(C#N)cc2)nc(N)c1Br [Etravirine]	29.1 µM	29.1 µM	54.9%	49%
C[C@@H]1O[C@@H](O[C@@H]2C=C3CC[C@@H]4[C@H](CC[C@]5(C)[C@@H](c6ccc(=O)oc6)CC[C@]45O)[C@@]3(C)CC2)[C@H](O)[C@H](O)[C@H]1O [Proscillaridin]	0.0164 µM	0.013 µM	91.3%	107%
CC(C(O)c1ccccc1)N(C)CCOC(c1ccccc1)c1ccccc1 (configuration not stated) [Difeterol]	29.1 µM	23.1 µM	85.3%	83%
COc1cc2c(cc1Cc1cccc(Cl)c1F)c(=O)c(C(=O)O)cn2[C@H](CO)C(C)C [Elvitegravir]	18.3 µM	20.6 µM	83%	71.8%
CCSc1ccc2c(c1)N(CCCN1CCN(C)CC1)c1ccccc1S2 [Thiethylperazine dimalate]	29.1 µM	20.6 µM	101%	102%
NCCCC[C@H](NC(=O)[C@@H]1CCCN1C(=O)[C@@H]1CSSC[C@H](N)C(=O)N[C@@H](Cc2ccc(O)cc2)C(=O)N[C@@H](Cc2ccccc2)C(=O)N[C@@H](CCC(N)=O)C(=O)N[C@@H](CC(N)=O)C(=O)N1)C(=O)NCC(N)=O [Lypressin]	> 45.8 µM	29.1 µM	51.6%	
NC(=O)N1c2ccccc2CC(=O)c2ccccc21 [Oxcarbazepine]	18.3 µM	> 45.8 µM		52.3%
CCCOc1ccc2[nH]c(NC(=O)OC)nc2c1 [Oxibendazole]	1.3 µM	0.183 µM	40.1%	43%
